Read-outs that look alike come from different tables or passages of the source.
How the values were obtained:
Ribo-S6 phosphorylation = assay: Inhibition of ribosomal protein S6 phosphorylation in stimulated primary human T cells (flow cytometry); type: cell-based
Protocol: The dose effect of exemplary mTOR kinase inhibitors in primary human T cells was assessed by monitoring inhibition of ribosomal protein S6.
CD4+ and CD8+ T cells were isolated by immunoaffinity-based enrichment from leukapheresis samples from human donor subjects. Isolated CD4+ and CD8+ T cells were mixed 1:1 and stimulated with anti-CD3/anti-CD28 magnetic beads in the presence of increasing concentrations of an mTOR kinase inhibitor, PI-103, Compound 155, Compound 63, or Compound 246. The T cell cultures were incubated overnight (approximately 16 hr) at 37° C. Following incubation in the presence of PI-103, Compound 155, Compound 63, or Compound 246, T cells were assessed for intracellular S6 phosphorylation and co-stained for surface expression of CD4 or CD8, by flow cytometry.

[1] = system: engineered CD8+ and CD4+ T cells; assay: T cell expansion of anti-CD19 CAR-transduced CD4+ and CD8+ T cells incubated with mTOR kinase inhibitor; type: cell-based
Protocol: Separate compositions of CD4+ and CD8+ cells were isolated from human leukapheresis samples by immunoaffinity-based enrichment and cryofrozen. The CD4+ and CD8+ cells of the compositions were subsequently thawed and activated by separately culturing the cells under stimulating conditions in the presence of anti-CD3/anti-CD28 magnetic beads and recombinant IL-2, IL-7 and/or IL-15 for approximately 20 hours. Cells were then transduced with a viral vector encoding an anti-CD19 chimeric antigen receptor (CAR). After transduction, the CD4+ and CD8+ cells were separately incubated in the presence of an mTOR kinase inhibitor, either Compound 155, Compound 63, or Compound 246, at various concentrations. For controls, cells were incubated with media only, DMSO vehicle, or with 200 nM PI-103. Incubation was carried out at 37° C. for approximately 8 days post-thaw with one media change, at which point the compounds were re-added to the culture media at the same concentration.
The percent of CD8+ and CD4+ T cells at the end of the process as compared to the amount of cells seeded for culture following the transduction is shown in FIG. 2. The cutoff for selecting a tolerated dose was set at 70% of the mean values of the media and DMSO controls.

[2] = Homo sapiens, T-cell, CD8+ T cells, read-out: IC50 for inhibition of Ribo-S6 phosphorylation, CD8
[3] = Homo sapiens, CD4+ T cells, read-out: IC50 for inhibition of Ribo-S6 phosphorylation, CD4
[4] = T-cell, primary human CD4+/CD8+ T cells mixed 1:1, anti-CD3/anti-CD28 beads, approximately 16 hr, read-out: IC50 for the inhibition of S6 phosphorylation in the T cells

| SMILES | IC50 (Ribo-S6 phosphorylation; [2]) | IC50 (Ribo-S6 phosphorylation; [3]) | IC50 (Ribo-S6 phosphorylation; [4]) | highest tolerated dose resulting in similar CD8 and CD4 T cell expansion as vehicle control ([1]; cutoff 70% of mean of media and DMSO controls, approximately 8 days post-thaw) | highest tolerated dose resulting in similar CD8 and CD4 T cell expansion as vehicle control ([1]; human) |
| --- | --- | --- | --- | --- | --- |
| CO[C@H]1CC[C@H](N2C(=O)CNc3ncc(-c4ccc(C(C)(C)O)nc4)nc32)CC1 [Compound 246, 7-(6-(2-hydroxypropan-2-yl)pyridin-3-yl)-1-((1r,4r)-4-methoxycyclohexyl)-3,4-dihydropyrazino[2,3-b]pyrazin-2(1H)-one] | 502 nM | 475 nM | ~500 nM | 100 nM |  |
| O=c1[nH]c2ncc(-c3ccc(-c4nc[nH]n4)cc3)nc2n1CCC1CCOCC1 [Compound 155, 6-(4-(2H-1,2,4-Triazol-3-yl)phenyl)-1-(2-(tetrahydro-2H-pyran-4-yl)ethyl)-1H-imidazo [4,5-b]pyrazine-2(3H)-one] | 127 nM | 121 nM | ~100 nM |  | 100 nM |

Reference: patent US20210254000A1, “PROCESS FOR PRODUCING A T CELL COMPOSITION” (Juno Therapeutics, Inc., priority 2017, published 2021)
